{
  "source": "paper PMC7738508",
  "about": "“A therapeutic combination of two small molecule toxin inhibitors provides broad preclinical efficacy against viper snakebite” (Nature Communications, 2020)",
  "key": {"[1]": {"tested_on": "procoagulant activity of Bothrops asper venom (citrated bovine plasma)", "assay": "plasma clotting assay", "type": "biochemical", "conditions": "Bothrops asper venom 100 ng, independent repeats", "experimental": "(§1) We used a previously developed plasma clotting assay[35] to measure venom-induced coagulation. Briefly, 100 ng of each venom was incubated at 37 °C for 30 min in the presence or absence of inhibitors (150 µM to 150 nM final concentrations). The final reaction consisted of 10 µl venom ± inhibitors in PBS, 20 µl 20 mM CaCl2, and 20 µl citrated bovine plasma (VWR). The samples were pipetted in triplicate into 384-well plates, and absorbance monitored at 595 nm for 2 h at 25 °C on an Omega FLUOstar instrument. We calculated the maximum clotting velocity of each of the curves as per clot waveform analysis, by calculating the maximum of the first derivative. The means of at least three independent experimental runs for each condition were plotted at each inhibitor concentration with SEMs."}, "[2]": {"tested_on": "procoagulant activity of Echis ocellatus venom (citrated bovine plasma)", "assay": "plasma clotting assay", "type": "biochemical", "conditions": "Echis ocellatus venom 100 ng, independent repeats", "experimental": "as §1"}, "[3]": {"tested_on": "coagulopathic activity of Daboia russelii venom (citrated bovine plasma)", "assay": "plasma clotting assay", "type": "biochemical", "set-up": "key to maximum clotting velocity: max of first derivative of A595 clot curve (max clotting velocity)", "conditions": "for maximum clotting velocity: Daboia russelii venom 100 ng, independent repeats", "experimental": "as §1"}, "[4]": {"set-up": "method as in PMID 29735645", "conditions": "cited from earlier work"}, "[5]": {"tested_on": "E. ocellatus venom", "assay": "in vivo preincubation model of envenoming (i.v.)", "set-up": "species or system CD-1 mice", "experimental": "All animal experiments were conducted using protocols approved by the Animal Welfare and Ethical Review Boards of the Liverpool School of Tropical Medicine and the University of Liverpool, and performed in specific pathogen-free conditions under licensed approval (PPL #4003718 and #P5846F90) of the UK Home Office and in accordance with the Animal [Scientific Procedures] Act 1986 and institutional guidance on animal care. All experimental animals (18–20 g [4–5 weeks old], male, CD-1 mice, Charles River, UK) were housed in groups of five with environmental enrichment, water and food ad libitum and their health monitored daily during acclimatization. The experimental design was based upon 3R-refined WHO-recommended protocols[28],[41], with animals randomized and observers being blinded to the experimental condition. The median lethal doses (venom LD50) used for E. ocellatus (Nigeria), E. carinatus (India), B. asper (Costa Rica), D. russelii (Sri Lanka) and B. arietans (Nigeria) venoms were previously determined[25],[41],[44],[45].\nAll experimental doses were prepared to a volume of 200 µl in PBS and incubated at 37 °C for 30 min prior to their intravenous injection via the tail vein. Animals were monitored for 6 h, and euthanized via rising concentrations of CO2 upon observation of previously defined humane end points that are predicators of lethality (e.g., seizure, pulmonary distress, paralysis, hemorrhage)[28]. Deaths, time of death, and survivors were recorded; where death/time of death actually represents the implementation of euthanasia based on defined humane end points.\nFor all experimental animals described above, blood samples were collected via cardiac puncture immediately post-euthanasia. Plasma was separated by centrifugation at 400 × g for 10 min and stored at −80 °C. We assessed the levels of thrombin-antithrombin complexes (TAT) and soluble thrombomodulin using mouse ELISA Kits (ab137994 and ab209880, Abcam), following the manufacturer’s protocol. All available plasma samples (some were unobtainable via cardiac puncture due to extensive internal hemorrhage) were assessed if the time of death within the group varied, whereas three samples were randomly chosen if the time of death was the same (e.g., either very rapid death within 2 min, or survival until the end of the experiment [360 min or 24 h]). The resulting data was plotted as the median of duplicate measurements for each animal and is presented with standard deviations (SDs)."}, "[6]": {"tested_on": "SVMP bioactivity of the four active venoms (E. ocellatus, E. carinatus, B. asper, B. arietans)", "assay": "in vitro kinetic fluorogenic SVMP assay, viper venoms overall", "type": "biochemical", "conditions": "four active venoms; marimastat 150 nM to 150 µM, batimastat […] and 150 nM", "experimental": "(§2) The SVMP assay measuring metalloproteinase activity and the plasma assay measuring coagulation in the presence or absence of venoms and inhibitors were performed as previously described. The SVMP assay kinetically measured cleavage of a quenched fluorogenic substrate (ES010, R&D Biosystems) by venom in the presence or absence of inhibitors.\n(§3) Briefly, 10 µl of the substrate (supplied as a 6.2 mM stock) was used per 5 ml reaction buffer (150 mM NaCl, 50 mM Tris-Cl pH 7.5). Reactions consisted of 10 µl of venom ± inhibitors in PBS and 90 µl of substrate. Venoms were used at 1 µg/reaction and final inhibitor concentrations ranged from 150 µM to 150 nM. Samples were preincubated for 30 min at 37 °C and pipetted in triplicate into 384-well plates (Greiner). Thereafter, data was collected on an Omega FLUOstar (BMG Labtech) instrument at an excitation wavelength of 320 nm and emission wavelength of 405 nm at 25 °C for 1 h. The areas under the curve (AUCs) in the 0–40 min interval were calculated for each sample using MARS data analysis software v3.31 (BMG Labtech); this time point was chosen as the time where all fluorescence curves had reached a plateau (maximum fluorescence). For comparing venom-only samples, the means of at least three independent experimental runs for each condition, expressed as AUCs (n ≥ 3), were plotted at each inhibitor concentration with standard error of the mean (SEM). To determine inhibitor efficacy, the AUCs for each of the samples that consisted of venom + inhibitors were transformed and expressed as percentages of the venom-only sample (where the venom was 100%). The negative control (PBS-only) was also expressed relative to the venom, and the variation in background was presented as an interval delineated by the lowest and highest values in the PBS-only samples across concentrations and inhibitors for a specific venom."}, "[7]": {"tested_on": "Bitis arietans venom SVMP activity", "assay": "fluorogenic SVMP assay", "type": "biochemical", "conditions": "independent repeats", "experimental": "as §2, §3"}, "[8]": {"tested_on": "Echis carinatus venom SVMP activity", "assay": "fluorogenic SVMP assay", "type": "biochemical", "conditions": "inhibitor 15 µM, independent repeats", "experimental": "as §2, §3"}, "[9]": {"tested_on": "Echis ocellatus venom SVMP activity", "assay": "fluorogenic SVMP assay", "type": "biochemical", "conditions": "independent repeats", "experimental": "as §2, §3"}, "[10]": {"tested_on": "Bothrops asper venom SVMP activity", "assay": "fluorogenic SVMP assay", "type": "biochemical", "conditions": "independent repeats", "experimental": "as §2, §3"}, "[11]": {"type": "in vivo, CD-1 mice", "conditions": "no venom; 60 µg of each drug, i.v.; listed as M", "quoted_text": "For all experimental animals described above, blood samples were collected via cardiac puncture immediately post-euthanasia. Plasma was separated by centrifugation at 400 × g for 10 min and stored at −80 °C. We assessed the levels of thrombin-antithrombin complexes (TAT) and soluble thrombomodulin using mouse ELISA Kits (ab137994 and ab209880, Abcam), following the manufacturer’s protocol. […] The resulting data was plotted as the median of duplicate measurements for each animal and is presented with standard deviations (SDs)."}, "[12]": {"tested_on": "procoagulant activity of viper venoms (citrated bovine plasma)", "assay": "plasma clotting assay, viper venoms overall", "type": "biochemical", "conditions": "range across all venoms; lower end of dimercaprol and marimastat ranges given as < 0.15; read-out: IC50, inhibition of procoagulant venom activity", "experimental": "as §1"}},
  "note": "“And” between values parts separate entries of the source, which are not always exact repeats. Equal values may be shown once.",
  "data": [
    {"smiles": "CNC(=O)[C@@H](NC(=O)[C@H](CC(C)C)[C@H](O)C(=O)NO)C(C)(C)C", "note": "[marimastat]", "values": [
      {"measurement": "maximum clotting velocity", "setting": "[1]; inhibitor 15 µM", "value": "0.02338 and 0.02609 and 0.02203"},
      {"measurement": "maximum clotting velocity", "setting": "[1]; inhibitor 150 µM", "value": "0.02696 and 0.02551 and 0.02522"},
      {"measurement": "maximum clotting velocity", "setting": "[2]; inhibitor 15 µM", "value": "0.0225 and 0.02559 and 0.02899"},
      {"measurement": "maximum clotting velocity", "setting": "[2]; inhibitor 150 µM", "value": "0.02088 and 0.02471 and 0.02435"},
      {"measurement": "effect on clotting after complete neutralization of SVMP activity", "setting": "[3]; D. russelii venom, high doses", "value": "revealed clear venom anticoagulant effects"},
      {"measurement": "maximum clotting velocity", "setting": "[3]; inhibitor 15 µM", "value": "0.01941 and 0.01206 and 0.01103"},
      {"measurement": "maximum clotting velocity", "setting": "[3]; inhibitor 150 µM", "value": "0.005735 and 0.003235"},
      {"measurement": "solubility compared with batimastat", "setting": "[4]", "value": "increased solubility"},
      {"measurement": "animals surviving the 6 h experiment (groups of five)", "setting": "[5]; 45 µg E. ocellatus venom preincubated with 60 µg inhibitor/mouse, i.v.", "value": "four"},
      {"measurement": "protection against venom-induced lethality", "setting": "[5]; 45 µg E. ocellatus venom preincubated with 60 µg of each drug, i.v., 6 h", "value": "prolonged the survival"},
      {"measurement": "thrombin-antithrombin (TAT) levels, range in group", "setting": "[5]; plasma after euthanasia, E. ocellatus venom + 60 µg of each drug, venom-only mean 1127.3, normal mice 10.2–15.9", "value": "231.2 to 267.9", "unit": "ng/mL"},
      {"measurement": "neutralization of SVMP bioactivity", "setting": "[6]", "value": "complete in vitro neutralization"},
      {"measurement": "SVMP activity, percentage of the venom-only sample", "setting": "[7]; inhibitor 15 µM", "value": "15.1667% and 15.8748% and 15.6727%"},
      {"measurement": "SVMP activity, percentage of the venom-only sample", "setting": "[7]; inhibitor 150 µM", "value": "14.1911% and 15.0205% and 14.976%"},
      {"measurement": "SVMP activity, percentage of the venom-only sample", "setting": "[8]", "value": "11.481% and 22.9494% and 21.3373%"},
      {"measurement": "SVMP activity, percentage of the venom-only sample", "setting": "[9]; inhibitor 15 µM", "value": "19.3205% and 20.8108% and 21.1203%"},
      {"measurement": "SVMP activity, percentage of the venom-only sample", "setting": "[9]; inhibitor 150 µM", "value": "18.1136% and 19.6025% and 15.3204%"},
      {"measurement": "SVMP activity, percentage of the venom-only sample", "setting": "[10]; inhibitor 15 µM", "value": "33.0579% and 34.1722% and 57.3186%"},
      {"measurement": "SVMP activity, percentage of the venom-only sample", "setting": "[10]; inhibitor 150 µM", "value": "29.6154% and 33.7275% and 43.4535%"},
      {"measurement": "thrombin-antithrombin (TAT) levels, drug-only control animals", "setting": "[11]", "value": "16.1111 ng/mL and 15.7371 ng/mL and 12.5653 ng/mL"},
      {"measurement": "IC50", "setting": "[12]", "value": "150 to 1920", "unit": "nM"}
    ]}
  ]
}
